Tests used:
[1] = test system: acetolactate synthase (ALS), Isolate 9 (S4/+) extract; assay: ALS activity assay in cell extracts; type: biochemical, Nicotiana tabacum
Protocol: (§1) Cell suspension cultures of normal (H1) and homozygous mutant (Isolate 16) cell lines were washed in C1 liquid medium. After washing, cells were extracted in a 100 mM potassium phosphate buffer (pH 7.5) containing 0.5 mM MgCl2, 1 mM sodium pyruvate, 0.5 mM thiamine pyrophosphate, 10 micromolar flavine-adenine dinucleotide (FAD) and 10 percent (by volume) glycerol. Polyclar AT (BDH Chemicals Ltd) was added to a final concentration of 250 mg per gram fresh weight of tissue. After centrifugation at 27,000xg for 15 minutes at 4°, an equal volume of a saturated solution of amminium sulfate was added to the supernatant fraction. The resultant precipitate (representing a 0 to 50 percent ammonium sulfate fraction) was redissolved in 100 mM potassium phosphate buffer (pH 7.5) containing 0.5 mM MgCl2, 1 mM sodium pyruvate, and salts were removed by passage through a Sephadex G-25 (Pharmacia PD-10) column.
(§2) ALS activity was assayed in a total volume of 500 microliters containing 100 microliters of the column eluate, 65 mM potassium phosphate buffer (pH 7.5) containing 10 mM MgCl2, 40 mM sodium pyruvate, 250 micromolar thiamine pyrophosphate, 23 micromolar FAD, and 1, 5, 10, 50, 100, 500 or 1000 ppb chlorsulfuron or sulfometuron-methyl. After incubation at 30° for 90 minutes, 250 microliters of 6N H2 SO4 was added to each assay tube, and the tubes were incubated at 55° for 10 minutes to terminate the enzymatic reaction and achieve complete conversion of acetolactate to acetoin. Acetoin content was then measured by a modification of the procedure described by Westerfield, J. Biol. Chem. 161:495 (1945). To each tube was added sequentially 100 microliters 50 percent NaOH, 150 microliters 0.5 percent creatine, and 150 microliters 5 percent alpha-napthol (in 2.5N NaOH). Color development was accelerated by incubation at 55° for 10 minutes. Tubes were then centrifuged, and the optical density was read at 530 nm. Background optical densities, which were subtracted from the optical density values of the reactions, were determined for each extract from parallel assays to which the enzyme extract was added after the addition of 6N H2 SO4. Protein concentrations were measured with Bio-Rad Protein Assay reagent with bovine serum albumin as a standard. Data points and specific activities, which are set forth below and in FIG. 2, represent the average values of at least three independent determinations. ALS activities are presented in FIG. 2 as percent activity in the absence of herbicide.
(§3) Responses to chlorsulfuron were determined for ALS activities in extracts of cells suspension cultures derived from nine individuals that differed with resepct to the S4 mutation. As described above, these individuals were produced by self-fertilization of an S4/+ heterozygote, and their genotypes were established by means of progeny analysis. Callus and plant phenotypes were determined by growth responses of cell cultures and seedlings, respectively, on herbicide-supplemented medium. […] In contrast, all individuals homozygous for the S4 mutation contained a highly resistant form of the enzyme. […] The correlation between both callus and plant phenotype and the response of ALS activity in vitro to the herbicide is both absolute and quantitative.

[2] = test system: acetolactate synthase (ALS), Isolate 30 (S4/S4) extract; assay: ALS activity assay in cell extracts; type: biochemical, Nicotiana tabacum
Protocol: as §1, §2, §3

[3] = test system: acetolactate synthase (ALS), Isolate 27 (S4/S4) extract; assay: ALS activity assay in cell extracts; type: biochemical, Nicotiana tabacum
Protocol: as §1, §2, §3

[4] = test system: acetolactate synthase (ALS), Isolate 24 (S4/+) extract; assay: ALS activity assay in cell extracts; type: biochemical, Nicotiana tabacum
Protocol: as §1, §2, §3

[5] = test system: acetolactate synthase (ALS), Isolate 1 (+/+) extract; assay: ALS activity assay in cell extracts; type: biochemical, Nicotiana tabacum
Protocol: as §1, §2, §3

[6] = biological target: T1, acetolactate synthase (ALS), Isolate 7 (+/+) extract (Nicotiana tabacum, UniProt P09114); assay: ALS activity assay in cell extracts; type: biochemical; conditions: read-out: Uninhibited activity (%) in the Presence of Chlorsulfuron
T1 construct: ALS activity was then assayed in extracts prepared from these cell suspension cultures; endogenous in cells; host or cells: N. tabacum cv; Xanthi cell suspension cultures (H1 parental haploid line; +/+ segregants), 0-50% ammonium sulfate fraction of the extract
T1 sequence (P09114 92-664): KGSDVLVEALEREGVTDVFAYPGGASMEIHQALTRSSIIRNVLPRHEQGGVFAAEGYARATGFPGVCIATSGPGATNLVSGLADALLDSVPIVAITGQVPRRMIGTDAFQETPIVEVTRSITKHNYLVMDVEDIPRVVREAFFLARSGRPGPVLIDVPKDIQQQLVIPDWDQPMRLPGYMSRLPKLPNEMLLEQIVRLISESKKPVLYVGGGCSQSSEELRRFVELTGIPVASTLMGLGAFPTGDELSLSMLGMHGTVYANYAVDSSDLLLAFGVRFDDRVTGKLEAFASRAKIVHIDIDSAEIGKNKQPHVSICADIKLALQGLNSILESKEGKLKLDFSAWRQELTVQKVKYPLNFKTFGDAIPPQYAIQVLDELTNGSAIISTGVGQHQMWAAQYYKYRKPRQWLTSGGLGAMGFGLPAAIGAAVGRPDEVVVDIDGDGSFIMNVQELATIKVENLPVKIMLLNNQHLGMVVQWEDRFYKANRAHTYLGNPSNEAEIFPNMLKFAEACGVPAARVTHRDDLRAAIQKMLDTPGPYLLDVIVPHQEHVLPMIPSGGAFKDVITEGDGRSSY
Protocol: as §1
ALS activity was assayed in a total volume of 500 microliters containing 100 microliters of the column eluate, 65 mM potassium phosphate buffer (pH 7.5) containing 10 mM MgCl2, 40 mM sodium pyruvate, 250 micromolar thiamine pyrophosphate, 23 micromolar FAD, and 1, 5, 10, 50, 100, 500 or 1000 ppb chlorsulfuron or sulfometuron-methyl. […] Acetoin content was then measured by a modification of the procedure described by Westerfield, J. Biol. Chem. 161:495 (1945). […] Tubes were then centrifuged, and the optical density was read at 530 nm. Background optical densities, which were subtracted from the optical density values of the reactions, were determined for each extract from parallel assays to which the enzyme extract was added after the addition of 6N H2 SO4. Protein concentrations were measured with Bio-Rad Protein Assay reagent with bovine serum albumin as a standard. […]
Responses to chlorsulfuron were determined for ALS activities in extracts of cells suspension cultures derived from nine individuals that differed with resepct to the S4 mutation. […] Callus and plant phenotypes were determined by growth responses of cell cultures and seedlings, respectively, on herbicide-supplemented medium. […]

[7] = test system: yeast Saccharomyces cerevisiae; conditions: medium supplementation; cited from earlier work
[8] = test system: highly resistant tobacco cell line "A"; assay: Growth test of highly resistant cell line; type: cell-based, Nicotiana tabacum
Excerpt: Resistant colonies were selected as they appeared and transferred to medium containing this same elevated level of sulfometuron-methyl. Several cell lines that continued to grow during subsequent passages in the presence of 200 ppb of the herbicide were isolated. […] A large part of this resistance is the result of the S4 mutation, for which this cell line is homozygous. However, because cell line A is inhibited by 100 ppb sulfometuron-methyl to approximatey the same degree as its parent S4/S4 is inhibited by 10 ppb, it appears that the new event increased resistance ten-fold beyond that conferred by the S4/S4 genotype.

Q: Which results are given for `COc1nc(C)nc(NC(=O)NS(=O)(=O)c2ccccc2Cl)n1` [Chlorsulfuron, chlorsulfuron]?
A: Uninhibited activity (%) in the Presence of Chlorsulfuron ([1]; 10 ppb): 59%; Uninhibited activity (%) in the Presence of Chlorsulfuron ([1]; 30 ppb): 50%; Uninhibited activity (%) in the Presence of Chlorsulfuron ([1]; 100 ppb): 42%; Uninhibited activity (%) in the Presence of Chlorsulfuron ([2]; 10 ppb): 89%; Uninhibited activity (%) in the Presence of Chlorsulfuron ([2]; 30 ppb): 83%; Uninhibited activity (%) in the Presence of Chlorsulfuron ([2]; 100 ppb): 81%; Uninhibited activity (%) in the Presence of Chlorsulfuron ([3]; 10 ppb): 88%; Uninhibited activity (%) in the Presence of Chlorsulfuron ([3]; 30 ppb): 82%; Uninhibited activity (%) in the Presence of Chlorsulfuron ([3]; 100 ppb): 79%; Uninhibited activity (%) in the Presence of Chlorsulfuron ([4]; 10 ppb): 60%; Uninhibited activity (%) in the Presence of Chlorsulfuron ([4]; 30 ppb): 47%; Uninhibited activity (%) in the Presence of Chlorsulfuron ([4]; 100 ppb): 41%; Uninhibited activity (%) in the Presence of Chlorsulfuron ([5]; 10 ppb): 42%; Uninhibited activity (%) in the Presence of Chlorsulfuron ([5]; 30 ppb): 29%; Uninhibited activity (%) in the Presence of Chlorsulfuron ([5]; 100 ppb): 23%; remaining ALS activity (% of uninhibited) at 0.01 ppm ([6]; 10 ppb): 36%; remaining ALS activity (% of uninhibited) at 0.03 ppm ([6]; 30 ppb): 22%; remaining ALS activity (% of uninhibited) at 0.1 ppm ([6]; 100 ppb): 16%

Q: For `COC(=O)c1ccccc1S(=O)(=O)NC(=O)Nc1nc(C)cc(C)n1` [Sulfometuron-methyl, sulfometuron-methyl], which “reversal of growth inhibition” value [7] is on record?
A: restored by addition of isoleucine, leucine, and valine

Q: And the “increase of resistance beyond that conferred by the S4/S4 genotype” value ([8]; 100 ppb on cell line A versus 10 ppb on S4/S4)?
A: ten-fold

Q: And the activity at 0.001 µg/mL ([8]; Nicotiana tabacum, sulfometuron-methyl 1 ppb, cell line "A", read-out: % of fresh weight at 0 ppb)?
A: 90%

Q: What about the activity at 0.01 µg/mL ([8]; Nicotiana tabacum, sulfometuron-methyl 10 ppb, cell line "A", read-out: % of fresh weight at 0 ppb) of the same compound?
A: 74%

Q: What about the activity at 0.1 µg/mL ([8]; Nicotiana tabacum, sulfometuron-methyl 100 ppb, cell line "A", read-out: % of fresh weight at 0 ppb) of the same compound?
A: 24%

Q: And the activity at 1 µg/mL ([8]; Nicotiana tabacum, sulfometuron-methyl 1000 ppb, cell line "A", read-out: % of fresh weight at 0 ppb)?
A: 10%

Q: What about the “concentration allowing growth relative to concentration that completely inhibits a normal cell line” value ([8]; growth at a greatly reduced rate) of the same compound?
A: 1000 times

Q: What about the “Fr. wt.” value ([8]; sulfometuron-methyl 1 ppb, cell line "A") of the same compound?
A: 2379 ± 243 mg

Q: What about the “Fr. wt.” value ([8]; sulfometuron-methyl 10 ppb, cell line "A") of the same compound?
A: 1952 ± 133 mg

Q: And the “Fr. wt.” value ([8]; sulfometuron-methyl 100 ppb, cell line "A")?
A: 629 ± 72 mg

Q: And the “Fr. wt.” value ([8]; sulfometuron-methyl 1000 ppb, cell line "A")?
A: 263 ± 83 mg

Reference: US4774381A, “Herbicide resistant tobacco” (E. I. Du Pont de Nemours and Company, priority 1985, dated 1988)
